Test results as given in publication PMC7160673, “A Degenerate Peptide Library Approach to Reveal Sequence Determinants of Methyllysine-Driven Protein Interactions” (Frontiers in Cell and Developmental Biology, 2020).

Test system: 53BP1 TTD
Assay: Histone peptide microarray, 53BP1 TTD
Type: binding
Details: 53BP1 TTD hits, average signal per peptide
Description: (§1) Peptide microarrays were fabricated using an Aushon 2470 microarrayer and used as described ([Cornett et al., 2017]) with the following modifications. Protein and antibody hybridization steps were performed in buffer containing 25 mM HEPES pH 7.5, 100 mM NaCl, 0.5% BSA (w/v), and 0.1% NP-40. Slides were washed 3 × 5 min in PBS supplemented with 0.1% Tween-20 between each hybridization step. Antibodies used were primary anti-GST (Sigma #7781, 1:2,000 dilution) and an AlexaFluor 647-labeled secondary antibody (Life Technologies A-21245, 1:5,000 dilution). […] Full lists of peptides queried by array analysis are in Supplementary Table S2.

Row | Substance | Avg Signal
1 | IAQDFKTDLRF-Peg-K(Biot)-NH2 [H3.1.1(74-84)] | 0.02
2 | ARTKQTARK(Me)pSTGGKAPRKQL-K(Biot)-NH2 [H3.1K9me1S10p] | 0.1506
3 | Ac-SGRGK(Ac)GGK(Ac)GLGK(Ac)GGAKRHRKVLR-Peg-Biot [H4K5acK8acK12ac] | 0.2078
4 | KSAPSTGGVKKPHRYKPGT-GG-K(Biot)-NH2 (C-terminal GG-K(biotin) amide) [yH3.1(27-45)] | 0.1127
5 | ARTKQTARKSTGGK(Ac)APRK(Ac)QL-K(Biot)-NH2 [H3.1K14acK18ac] | 0.1587
6 | ACitTK(Ac)QTARK(Ac)STGGK(Ac)APRK(Ac)QL-K(Biot)-NH2 [H3.1Cit2K4acK9acK14acK18ac] | 0.04568
7 | Ac-IAQDFK(Me)TDLRF-Peg-K(Biot)-NH2 [Peptide H3.1K79me1] | 0.009736
8 | KSAPSTGGVK(Me2)KPHRYKPGT-GG-K(Biot)-NH2 [yH3K36me2] | 0.8217
9 | ARpTK(Me3)QTARKSTGGKAPRKQL-K(Biot)-NH2 [Peptide H3.1T3pK4me3] | 0.0446
10 | Ac-SGRGKQGGKARAKAKTR-Peg-Biot [H2A(1-17)] | 0.1243
11 | Ac-pSGRGK(Ac)QGGKARAKAKTR-Peg-Biot [Peptide H2AS1pK5ac] | 0.01536
12 | ARpTK(Me3)QTARK(Ac)STGGK(Ac)APRK(Ac)QL-K(Biot)-NH2 [H3.1T3pK4me3K9acK14acK18ac] | 0.05883
13 | ARTK(Ac)QTARK(Ac)pSTGGK(Ac)APRK(Ac)QL-K(Biot)-NH2 [H3.1K4acK9acS10pK14acK18ac] | 0.04385
14 | ARTKQpTARK(Ac)STGGK(Ac)APRK(Ac)QL-K(Biot)-NH2 [H3.1T6pK9acK14acK18ac] | 0.04664
15 | ARTK(Ac)QTARK(Ac)STGGKAPRKQL-K(Biot)-NH2 [Peptide H3.1K4acK9ac] | 0.05583
16 | ARTK(Ac)QTARK(Ac)STGGKAPRK(Ac)QL-K(Biot)-NH2 [H3.1K4acK9acK18ac] | 0.1542
17 | ARTK(Ac)QTARKSTGGKAPRKQL-K(Biot)-NH2 [Peptide H3.1K4ac] | 0.1441
18 | (Biot)Peg-MPKDIQLARRIRGERA-OH [H3.1.1(120-135)] | 0.05797
19 | Ac-IAQDFKTDLRF-Peg-K(Biot)-NH2 [H3.1.1(74-84)N-ac] | 0.06248
20 | Ac-pSGRGK(Ac)QGGK(Ac)ARAK(Ac)AK(Ac)TR-Peg-Biot [H2AS1pK5acK9acK13acK15ac] | 0.09024
21 | KSAPSTGGVK(Ac)KPHRYKPGT-GG-K(Biot)-NH2 [yH3K36ac] | 0.06747
22 | ARTK(Ac)QTARK(Ac)STGGK(Ac)APRKQL-K(Biot)-NH2 [H3.1K4acK9acK14ac] | 0.1165

Test system: Millipore #07-449, anti-H3K27me3
Assay: Histone peptide microarray, Millipore 07-449;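 note: normalized to the highest peptide average per subarray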
Type: binding
Details: Millipore 07-449 (anti-H3K27me3) hits, average signal per peptide
Description: as §1

Row | Substance | Avg Signal
23 | KSAPSpTGGVKKPHRYRPGT-G-K(Biot)-NH2 [Peptide H3.3T32p] | 0.006003
24 | Ac-SGRGKGGK(Ac)GLGK(Ac)GGAK(Ac)RHRKVLR-Peg-Biot [H4K8acK12acK16ac] | 0.005254
25 | Ac-RRYQK(Me3)STELL-Peg-Biot [Peptide H3.1K56me3] | 0.0004417
26 | Ac-AGGK(Ac)AGK(Ac)DSGK(Ac)AKTKAVSR-Peg-Biot [H2A.Z.1K4acK7acK11acN-ac] | 0.0008552
27 | Ac-TGGKAPR-NleQLATKAAR-Peg-Biot [Peptide H3.1K18-Nle] | 0.005136
28 | Ac-SGRGK(Ac)GGK(Ac)GLGK(Ac)GGAKRHRKVLR-Peg-Biot [H4K5acK8acK12ac] | 0.002971
29 | Ac-APRKQLATKAARK(Ac)SAPATGG-Peg-Biot [Peptide H3.1K27ac] | 0.003716
30 | Ac-SGRGKGGK(Ac)GLGKGGAKRHRK(Ac)VLR-Peg-Biot [Peptide H4K8acK20ac] | 0.001712
31 | KSAPpSTGGVK(Me3)KPHRYRPGTV-K(biotin)-NH2 [H3.3S31pK36me3] | 0.01017
32 | ARpTK(Me3)QTARKSTGGKAPRKQL-K(Biot)-NH2 [Peptide H3.1T3pK4me3] | 9.707e-5
33 | ARpTK(Me3)QTARK(Ac)STGGK(Ac)APRK(Ac)QL-K(Biot)-NH2 [H3.1T3pK4me3K9acK14acK18ac] | 0.007748
34 | ARTKQpTARK(Ac)STGGK(Ac)APRK(Ac)QL-K(Biot)-NH2 [H3.1T6pK9acK14acK18ac] | 0.004763
35 | ARTK(Ac)QTARK(Ac)STGGKAPRK(Ac)QL-K(Biot)-NH2 [H3.1K4acK9acK18ac] | 0.0004417
36 | (Biot)Peg-MPKDIQLARRIRGERA-OH [H3.1.1(120-135)] | 0.0002349

Test system: Abcam #ab8895, anti-H3K4me1
Assay: Histone peptide microarray, Abcam ab8895;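 note: normalized to the highest peptide average per subarray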
Type: binding
Details: Abcam ab8895 (anti-H3K4me1) hits, average signal per peptide
Description: as §1

Row | Substance | Avg Signal
37 | KSAPSpTGGVKKPHRYRPGT-G-K(Biot)-NH2 [Peptide H3.3T32p] | 0.0003862
38 | Ac-SGRGKGGK(Ac)GLGK(Ac)GGAK(Ac)RHRKVLR-Peg-Biot [H4K8acK12acK16ac] | 0.004192
39 | Ac-AGGK(Ac)AGK(Ac)DSGK(Ac)AKTKAVSR-Peg-Biot [H2A.Z.1K4acK7acK11acN-ac] | 4.222e-5
40 | ARTKQTARK(Me)pSTGGKAPRKQL-K(Biot)-NH2 [H3.1K9me1S10p] | 0.1234
41 | ARTKQTARKSTGGK(Ac)APRK(Ac)QL-K(Biot)-NH2 [H3.1K14acK18ac] | 0.1741

Test system: Active Motif #39161, anti-H3K9me3
Assay: Histone peptide microarray, Active Motif 39161;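 note: normalized to the highest peptide average per subarray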
Type: binding
Details: Active Motif 39161 (anti-H3K9me3) hits
Description: as §1

Row | Substance | Avg Signal
42 | KSAPSpTGGVKKPHRYRPGT-G-K(Biot)-NH2 [Peptide H3.3T32p] | 0.001353
43 | Ac-RRYQK(Me3)STELL-Peg-Biot [Peptide H3.1K56me3] | 0.01852
44 | Ac-AGGK(Ac)AGK(Ac)DSGK(Ac)AKTKAVSR-Peg-Biot [H2A.Z.1K4acK7acK11acN-ac] | 0.000221
45 | Ac-TGGKAPR-NleQLATKAAR-Peg-Biot [Peptide H3.1K18-Nle] | 0.003627
46 | IAQDFKTDLRF-Peg-K(Biot)-NH2 [H3.1.1(74-84)] | 0.003353
47 | Ac-APRKQLATKAARK(Ac)SAPATGG-Peg-Biot [Peptide H3.1K27ac] | 0.002581
48 | Ac-SGRGKGGK(Ac)GLGKGGAKRHRK(Ac)VLR-Peg-Biot [Peptide H4K8acK20ac] | 0.003203
49 | KSAPpSTGGVK(Me3)KPHRYRPGTV-K(biotin)-NH2 [H3.3S31pK36me3] | 0.01189
50 | ACitTK(Ac)QTARK(Ac)STGGK(Ac)APRK(Ac)QL-K(Biot)-NH2 [H3.1Cit2K4acK9acK14acK18ac] | 0.003876
51 | Ac-IAQDFK(Me)TDLRF-Peg-K(Biot)-NH2 [Peptide H3.1K79me1] | 0.002481
52 | ARpTK(Me3)QTARKSTGGKAPRKQL-K(Biot)-NH2 [Peptide H3.1T3pK4me3] | 0.008533
53 | Ac-pSGRGK(Ac)QGGKARAKAKTR-Peg-Biot [Peptide H2AS1pK5ac] | 0.009305
54 | ARpTK(Me3)QTARK(Ac)STGGK(Ac)APRK(Ac)QL-K(Biot)-NH2 [H3.1T3pK4me3K9acK14acK18ac] | 0.05484
55 | ARTKQpTARK(Ac)STGGK(Ac)APRK(Ac)QL-K(Biot)-NH2 [H3.1T6pK9acK14acK18ac] | 0.002409
56 | ARTK(Ac)QTARK(Ac)STGGKAPRK(Ac)QL-K(Biot)-NH2 [H3.1K4acK9acK18ac] | 0.011
57 | ARTK(Ac)QTARKSTGGKAPRKQL-K(Biot)-NH2 [Peptide H3.1K4ac] | 0.0285
58 | (Biot)Peg-MPKDIQLARRIRGERA-OH [H3.1.1(120-135)] | 0.000221
59 | Ac-IAQDFKTDLRF-Peg-K(Biot)-NH2 [H3.1.1(74-84)N-ac] | 0.005943
